This test has as its system vascular structures in the dorsal window chamber. Format: in vivo, mice of strain C3H. Particulars: MRV6401 0.05 mg/kg i.v., red 660 nm-680 nm. An excerpt: Male mice of strain C3H (sourced from The Jackson Laboratory, 600 Main Street, Bar Harbor, Me. 04609, USA) weighing between 28-30 grams were surgically implanted with titanium back-pack window chambers in a similar manner to that described in Example 2. A chamber was considered suitable for subsequent studies if microscopic examination of the preparation met the same criteria as those described in Example 2. The intra-vital microscopic studies were undertaken on unsedated animals held in the same Plexiglass tube assembly as that described in Example 2. The intra-vital microscopy was also performed using the same Leitz Dialux 22 microscope fitted with the same objective lenses, and mercury lamp trans- and epi-illumination sources. However, for the studies described in Example 3, the irradiation source was not a DD4 laser, but rather, activation of the photosensitizers was undertaken using narrow band filtered light from the mercury lamp epi-illumination source. Two different wavelength bands were used to activate the photosensitizers, namely green or red light (see Table 5 below). These wavelengths were obtained by use of filter cubes placed in a Leitz Ploemopak illumination system (NcBain Instruments, Inc., 9601 […] Avenue, Chatsworth, Calif., 91311, USA) fitted to the Leitz Dialux 22 microscope. For activation using green light epi-illumination (530 nm-560 nm) the BP 530-560 band pass excitation filter of the Leitz Ploemopak N2 cube (Cat. No. 513-609, E. Leitz Inc., Rockleigh, N.J., 07647, USA) was used. For activation using red light epi-illumination (660 nm-680 nm) a 670DF20 band pass filter (Cat. No., XF1028, Omega Optical Co., Brattleboro, Vt., 05302, USA) fitted in a Leitz Ploemopak cube was used. In all cases, the activation of the photosensitizer was performed in a defined region that was smaller than the total field of tissue contained within the window chamber. The total mouse dorsal tissue contained within the window chambers was a circle of 1.0 cm diameter, corresponding to a total area of approximately 0.785 cm^2. The illumination field of the activating light was a circle of 0.225 cm diameter, corresponding to a total area of approximately 0.040 cm^2. Thus, approximately 5% of the total area of the chamber was directly illuminated. Mice bearing a dorsal window chamber were placed in the Plexiglass restrainer on the microscope stage for pre-treatment evaluation of the vascular structures. Prior to photosensitizer administration, the architecture of the vascular structures in the entire window chamber in all mice was examined using 410 nm filtered blue light from the mercury trans-illumination source of the intra-vital microscope, and the images which were generated were recorded on video tape for subsequent evaluation. The methods for imaging and recording were as described in Example 2. Briefly, the imaging source was a […] mercury arc lamp (Type 307-143.004 from Ernst Leitz Wetzlar GmBH, Germany) which was powered by an HBO 100 power supply (LEP Ltd., Scarsdale, N.Y.). The output from this source was filtered using a #H43157 interference filter (Edmund Scientific, 101 East Gloucester Pike, Barrington, N.J., 08007-1380), to produce a beam of 410 nm light. Typically, the power density of the imaging light was less than 0.6 […]^2. Two or three fields in each chamber were designated as fields of interest and their location recorded for post-treatment evaluation. These fields were chosen such that they were not adjacent to each other, and one of these fields was chosen so that it was within the region of the chamber that was to receive the activating light illumination. Following identification, recording and designation of the fields of interest, mice were injected with either the photosensitizer […] Medical Technologies, 336 Bollay Drive, Santa Barbara, Calif., 93117) formulated in egg yolk phospholipid ([…] Polar Lipids, Inc., 700 Industrial Park Avenue, Alabaster, Ala., 35007), the photosensitizer […]

Setting [1] is: animal #10, 12 J/cm^2, probe 6 min post light irradiation.
Setting [2] is: animal #13, 8 J/cm^2, probe administered 24 hr post light irradiation.

Where two headings read alike, the source gives them in different places.

`C=Cc1c(C)c2[n]3c1=CC1=NC(=Cc4c(C)c5c([n]4[In]3[Cl])C(=C3N=C(C=2)[C@@H](C)[C@@H]3CCC(=O)OC)CC5=O)C(CC)=C1C` [MV6401, indium methyl pyropheophorbide]: the “TRITC-Dextran in tissue and cells in regions outside the treatment field at 24 hr time point” value (animal #8, 12 J/cm^2, 155 kD probe 10 min post light irradiation) is recorded as “no significant fluorescence from TRITC-Dextran”. In addition, the “Leakage of 155 kD TRITC-Dextran in the treatment field at 24 hr time point” value (animal #8, 12 J/cm^2, probe 10 min post light irradiation) is “significant leakage in region 2”. Besides, the “Leakage of secondary probe 150 kD FITC-Dextran from vessels in the treatment field, 20 min post probe” value (animal #8, 12 J/cm^2, probe administered 24 hr post light irradiation) was “leakage of FITC from vessels in the treated region 2”. Moreover, under “animal #8, 12 J/cm^2, probe administered 24 hr post light irradiation, 0.05 mg/kg”, the “Leakage of secondary probe 150 kD FITC-Dextran from vessels outside the treatment field, 20 min post probe” value is “some minimal leakage from the vessels in region 1”. The “150 kD FITC-Dextran in tissue and cells surrounding vessels (regions 1 treated and 3) at 24 hr” value (animal #10, 12 J/cm^2) is “pattern was apparent at the 2 hr time point, and at the 24 hr time point there was FITC-Dextran present at high levels”. Moreover, under setting [1], the “Leakage of 150 kD FITC-Dextran from the treated vessels at 1 hr post probe administration” value is “with significant leakage apparent”; the “Leakage of 150 kD FITC-Dextran from vessels outside the treatment field at 1 hr post probe administration” value was “from the treated vessels in region 1, some minor leakage from vessels in region 3 and no leakage from vessels in region”. Moreover, the “2,000 kD FITC-Dextran leakage in tissue and cells outside the treatment field at 24 hr” value (animal #11, 12 J/cm^2) is “FITC-Dextran uptake in tissues and cells in this region. The tissue and cells in regions 2 and 3 showed some minor”. In addition, the “Leakage of 2,000 kD FITC-Dextran from vessels outside the treatment field at 1 hr” value (animal #11, 12 J/cm^2, probe 19 min post light irradiation) was “no leakage from vessels in regions 2 and 3”. For the same compound, the “Leakage of 2,000 kD FITC-Dextran from vessels outside the treatment field at 1 hr” value (animal #12, 8 J/cm^2, probe 3 min post light irradiation) was “no leakage from vessels in regions 2 and 3”. Also, where the note is “animal #12, 8 J/cm^2, probe administered 24 hr post light irradiation”, the “Leakage of secondary probe 155 kD TRITC-Dextran from vessels in the treatment field” value is given as “significant on-going leakage from vessels in region 1”. Also, under setting [2], the “Leakage of secondary probe 2,000 kD FITC-Dextran from vessels in the treatment field” value was “significant on-going leakage from vessels in region 1” and the “Leakage of secondary probe 2,000 kD FITC-Dextran from vessels outside the treatment field” value is “no evidence of on-going leakage”.

For the origin of these results see patent US20040044304A1, “Local drug delivery using photosensitizer-mediated and electromagnetic radiation enhanced vascular permeability” (priority 2002, published 2004).
